Columns and labels:
[1] = biological target: T1, HIV Reverse transcriptase (RT) 66/p51 (Human immunodeficiency virus type 1 group M subtype B, UniProt P04585); assay: RNA dependent DNA polymerase (RDDP) activity of HIV RT, polyrA-oligodT12-18 / 33P TTP incorporation filter assay; format: biochemical
T1 construct: HIV Reverse transcriptase (RT) 66/p51; purchased Worthington

[2] = biological target: T2, HIV reverse transcriptase (Human immunodeficiency virus type 1 group M subtype B, UniProt P04585); assay: Inhibition of HIV reverse transcriptase (RNase H fluorescent probe assay), Table I; format: biochemical
T2 construct: HIV reverse transcriptase has an RNase H domain at the C-terminus of its p66 subunit
From the text: RNase H is an enzyme responsible for the removal of RNA primers from leading and lagging strands during DNA synthesis. It is an important enzyme for the replication of bacterial, viral and human genomes. HIV reverse transcriptase has an RNase H domain at the C-terminus of its p66 subunit. […] The ability of the compounds of the present invention to inhibit RNase H, and more particularly HIV reverse transcriptase, may be determined by any means known in the art.
Preferably, the RNase H/HIV reverse transcriptase modulatory activity of the compounds of the present invention may be determined by the methods described in copending U.S. Provisional Patent Application No. 60/436,125, filed Dec. 19, 2002 and PCT International Publication No. WO/2004/059012, filed Dec. 22, 2003 for ASSAY FOR RNase ACTIVITY of Olson et al., incorporated herein by reference in its entirety. Specifically, the modulatory activity of a triazole derivative of the present invention may be determined by hybridizing a target nucleic acid to a fluorescently labeled oligonucleotide probe complementary to the target nucleic acid and containing a fluorophor at one terminus and a quenching group at the other terminus to obtain a probe-target hybrid, wherein (i) the unhybridized probe adopts a conformation that places the fluorophon and quencher in such proximity that the quencher quenches the fluorescent signal of the fluorophon, and (ii) the formation of the probe-target hybrid causes sufficient separation of the fluorophon and quencher to reduce quenching of the fluorescent signal of the fluorophon. Next, a first and second sample containing the probe-target hybrid are prepared. The probe-target hybrid of the first sample is then contacted with an RNase H enzyme (such as HIV reverse transcriptase) in an amount sufficient to selectively cleave the target nucleic acid and thereby release the intact probe. The probe-target hybrid of the second sample is also contacted with the RNase H enzyme in an amount sufficient to selectively cleave the target nucleic acid and thereby release the intact probe in the presence of a triazole derivative of the present invention. The release of the probe in each sample may then be detected by measuring the […] in the fluorescent signal of the fluorophon as compared to the signal of the probe-target hybrid. A comparison of the rate of the decrease in the fluorescent signal of the fluorophon in the two samples is made to determine whether there is a difference in the rate of the decrease in the two samples. […] This method is also useful to identify triazole derivatives of the present invention, wherein candidate derivatives are screened for their ability to modulate RNase/HIV reverse transcriptase activity.

Structure (SMILES)	IC50 [1]	IC50 [2]
Cc1cn([C@H]2C[C@H](N=[N+]=[N-])[C@@H](CO)O2)c(=O)[nH]c1=O [AZT]	< 0.2 µM	–
Clc1ccc(CSc2nnc(-c3cccs3)n2Cc2ccccc2)cc1 [Example 1, 4-benzyl-3-[(4-chlorobenzyl)thio]-5-thien-2-yl-4H-1,2,4-triazole]	–	1.3 µM
c1ccc(CSc2nnc(-c3cccs3)n2Cc2ccccc2)cc1 [Example 2, 4-benzyl-3-(benzylthio)-5-thien-2-yl-4H-1,2,4-triazole]	–	< 0.2 µM
c1ccc(Cn2c(SCc3ccncc3)nnc2-c2cccs2)cc1 [Example 3, 4-{[(4-benzyl-5-thien-2-yl-4H-1,2,4-triazol-3-yl)thio}methyl}pyridine]	–	0.2 µM
COc1ccc(CSc2nnc(-c3ccccc3)n2Cc2ccccc2)cc1 [Example 4, 4-benzyl-3-[(4-methoxybenzyl)thio]-5-phenyl-4H-1,2,4-triazole]	–	1 µM
c1ccc(CSc2nnc(-c3ccccc3)n2Cc2ccccc2)cc1 [Example 5, 4-benzyl-3-(benzylthio)-5-phenyl-4H-1,2,4-triazole]	–	1 µM
c1ccc(CSc2nnc(-c3ccco3)n2Cc2ccccc2)cc1 [Example 6, 4-benzyl-3-(benzylthio)-5-(2-furyl)-4H-1,2,4-triazole]	–	1.2 µM
c1ccc(CSc2nnc(-c3ccccn3)n2Cc2ccccc2)cc1 [Example 7, 2-[4-benzyl-5-(benzylthio)-4H-1,2,4-triazol-3-yl]pyridine]	–	1.7 µM
c1ccc(Cn2c(SCc3ccncc3)nnc2-c2ccccn2)cc1 [Example 8, 2-[4-benzyl-5-[(pyridine-4-ylmethyl)thio)-4H-1,2,4-triazol-3-yl]pyridine]	–	2.6 µM
COc1ccc(CSc2nnc(-c3ccco3)n2Cc2ccccc2)cc1 [Example 9, 4-benzyl-3-(2-furyl)-5-[(4-methoxybenzyl)thio]-4H-1,2,4-triazole]	–	3.8 µM
Clc1ccc(CSc2nnc(-c3ccco3)n2Cc2ccccc2)cc1 [Example 10, 4-benzyl-3-[(4-chlorobenzyl)thio]-5-(2-furyl)-4H-1,2,4-triazole]	–	3.8 µM
FC(F)(F)c1ccc(CSc2nnc(-c3ccco3)n2-c2ccccc2)cc1 [Example 12, 3-(2-furyl)-4-phenyl-5-{[4-(trifluoromethyl)benzyl]thio}-4H-1,2,4-triazole]	–	4.7 µM
COc1ccc(CSc2nnc(-c3cccs3)n2Cc2ccccc2)cc1 [Example 13, 4-benzyl-3-[(4-methoxybenzyl)thio]-5-thien-2-yl-4H-1,2,4-triazole]	–	5.9 µM
COc1ccc(Cn2c(SCc3ccc(C(F)(F)F)cc3)nnc2-c2ccco2)cc1 [Example 14, 3-(2-furyl)-4(4-methoxybenzyl)-5-{[4-(trifluoromethyl)benzyl]thio}-4H-1,2,4-triazole]	–	6.5 µM
Clc1ccc(CSc2nnc(-c3ccccc3)n2Cc2ccccc2)cc1 [Example 15, 4-benzyl-3-(4-chloro-benzylsulfanyl)-5-phenyl-4H-1,2,4-triazole]	–	6 µM
COc1ccc(CSc2nnc(-c3ccccn3)n2Cc2ccccc2)cc1 [Example 16, 2-[4-benzyl-5-(4-methoxy-benzylsulfanyl)-4H-1,2,4-triazol-3-yl]pyridine]	–	7 µM
Clc1ccc(CSc2nnc(-c3ccccn3)n2Cc2ccccc2)cc1 [Example 17, 2-[4-benzyl-5-(4-chloro-benzylsulfanyl)-4H-1,2,4-triazol-3-yl]pyridine]	–	23 µM
COc1ccc(Cn2c(SCc3ccccc3)nnc2-c2ccco2)cc1 [Example 18, 3-benzylsulfanyl-5-furan-2-yl-4-(4-methoxy-benzyl)-4H-1,2,4-triazole]	–	46 µM

Reference: US7563905B2, “Triazole derivatives and method of using the same to treat HIV infections” (Wyeth, priority 2004, dated 2009)
